The values below come from patent publication US12606528B2, “Methods and materials for inhibiting NF-kB activity” (University of Pittsburgh - Of the Commonwealth System of …, priority 2019, dated 2026).

pIC50: −log10 of the molar value. Bounds are passed on as bounds.

The subject of the first test is NF-κB. Put plainly: NF-κB assay: THP1-NF-κB-LUC cells, LPS-stimulated secreted luciferase. Type of test: cell-based. The following applies: THP1-NF-κB-LUC cells, LPS-stimulated; read-out: IC50 (NF-κB assay). The procedure: FIG. 1 contains line plots showing NF-κB activity of exemplified compounds. 25k THP1-NF-κB-LUC cells were dispensed into 384 well plate (per well). Cells were treated with compounds (2 μM and 0.2 μM) for 2 hours before addition of LPS (10 ng/mL) for 18 hours. Secreted luciferase activity were measured using quant-luc reagents (1 bag of luc reagent dilute to 40 mL, use 10 μL per well). Data were normalized to vehicle control and graphed. Structures of selected exemplified compounds are shown.
FIG. 2 contains heat charts showing NF-κB activity of exemplified compounds as a function of concentration. 25k THP1-NF-κB-LUC cells were dispensed into 384 well plate (per well). Cells were treated with compounds (with serial dilution) for 2 hours before addition of LPS (10 ng/ml) for 18 hours. Secreted luciferase activity were measured using quant-luc reagents (1 bag of luc reagent dilute to 40 mL, use 10 μL per well). Structures of selected exemplified compounds are shown.
25k THP1-NF-κB-LUC cells were dispensed into 384 well plate (per well). Cells were treated with compounds with various concentrations for 2 hours before addition of LPS (10 ng/mL) for 18 hours. Secreted luciferase activity were measured using quant-luc reagents (1 bag of luc reagent dilute to 40 mL, use 10 μL per well). Data were normalized to vehicle control and graphed. Compound IC50 towards inhibiting NF-κB were determined through Prism. Similarly, 10k human PBMCs cells were cultured in 384 well plate (per well). Cells were treated with compounds with various concentrations for 2 hours before addition of LPS (10 ng/ml) for 18 hours, and supernatants were collected and assayed for TNF ELISA. Compound IC50 towards inhibiting TNF release were determined through Prism. • Activity: “+”>10 μM, “++”>1 μM and <10 μM, “+++”>0.1 μM and <1 μM, “++++”<0.1 μM.
`CCCCSc1oc(-c2ccc(F)cc2)nc1S(=O)(=O)c1ccccc1` [BC18559]: the pIC50 is 5.00 to 6.00.

Regarding `CC(C)S(=O)(=O)c1oc(-c2ccc(F)cc2)nc1S(=O)(=O)c1ccccc1` [BC18531], the pIC50 was above 7.00. Still for that read-out and setting: as for `CC(C)Sc1oc(-c2ccccc2)nc1S(=O)(=O)c1ccc(Cl)cc1` [BC18546], the figure is 5.00 to 6.00; as for `CCS(=O)(=O)c1oc(-c2ccccc2)nc1S(=O)(=O)c1ccc(Cl)cc1` [BC18524], 5.00 to 6.00; as for `CCOc1ccc(-c2nc3ccc(C(=O)NCCN(CC)CC)cc3nc2-c2ccc(OCC)cc2)cc1` [BC18411], 5.00 to 6.00. Consider `CC(C)S(=O)(=O)c1oc(-c2ccc(F)cc2)nc1S(=O)(=O)c1ccc(F)cc1` [BC18554], for which the pIC50 was above 7.00. The same measure, in the same setting: next, `CCCCSc1oc(-c2ccc(F)cc2)nc1S(=O)(=O)c1ccc(F)cc1` [BC18506]: below 5.00; `Cc1cccc(CNC(=O)c2ccc3nc(-c4ccc(F)cc4)c(-c4ccc(F)cc4)nc3c2)c1` [BC18424]: 6.00 to 7.00.

With `CS(=O)(=O)c1oc(-c2ccc(F)cc2)nc1S(=O)(=O)c1ccc(Cl)cc1` [BC18522], the pIC50 was above 7.00. In the case of `CCC(C)Sc1oc(-c2ccc(F)cc2)nc1S(=O)(=O)c1ccc(F)cc1` (stereo not shown) [BC18518], the pIC50 is 5.00 to 6.00. As to `CCSc1oc(-c2ccc(F)cc2)nc1S(=O)(=O)c1ccc(Br)cc1` [BC18563], the pIC50 was below 5.00. Still for that read-out and setting: as for `CCSc1oc(-c2ccc(F)cc2)nc1S(=O)(=O)c1ccc(C)cc1` [BC18560], the figure is 5.00 to 6.00; as for `O=C(c1ccc2nc(-c3ccccc3)c(-c3ccccc3)nc2c1)N1CCN(c2ccc(F)cc2)CC1` [BC18451], 6.00 to 7.00; as for `CNC(=O)c1ccc2nc(-c3cccc(C)c3)c(-c3cccc(C)c3)nc2c1` [BC18407], 5.00 to 6.00. With `CCN1CCN(C(=O)c2ccc3nc(-c4ccccc4)c(-c4ccccc4)nc3c2)CC1` [BC18473], the pIC50 is above 7.00. As for `Cc1ccc(CNC(=O)c2ccc3nc(-c4cccc(C)c4)c(-c4cccc(C)c4)nc3c2)cc1` [BC18468], the pIC50 was below 5.00. On the same count and under the same terms, next, `CC(C)CS(=O)(=O)c1oc(-c2ccc(F)cc2)nc1S(=O)(=O)c1ccc(F)cc1` [BC18587]: above 7.00. As for `CSc1oc(-c2ccccc2)nc1S(=O)(=O)c1ccc(F)cc1` [BC18502], the pIC50 was below 5.00. Still for that read-out and setting: next, `Cc1cccc(-c2nc3ccc(C(=O)N4CCN(c5ncccn5)CC4)cc3nc2-c2cccc(C)c2)c1` [BC18436]: 5.00 to 6.00. Turning to `CCSc1oc(-c2ccc(C)cc2)nc1S(=O)(=O)c1ccc(Cl)cc1` [BC18547], the pIC50 is below 5.00. Same read-out and setting: as for `O=C(NCc1cccnc1)c1ccc2nc(-c3ccc(F)cc3)c(-c3ccc(F)cc3)nc2c1` [BC18458], the figure is above 7.00; as for `CSc1oc(-c2ccc(F)cc2)nc1S(=O)(=O)c1ccc(C)cc1` [BC18549], below 5.00. Still for that read-out and setting: next, `CCCSc1oc(-c2ccc(F)cc2)nc1S(=O)(=O)c1ccccc1` [BC18537]: 5.00 to 6.00; `O=C(NCc1ccccn1)c1ccc2nc(-c3ccc(F)cc3)c(-c3ccc(F)cc3)nc2c1` [BC18447]: above 7.00; `CCCNC(=O)c1ccc2nc(-c3cccc(C)c3)c(-c3cccc(C)c3)nc2c1` [BC18402]: 5.00 to 6.00. Still for that read-out and setting: as for `CCSc1oc(-c2ccccc2)nc1S(=O)(=O)c1ccc(F)cc1` [BC18556], the figure is 5.00 to 6.00. On to `Cc1cccc(-c2nc3ccc(C(=O)NC(C)C)cc3nc2-c2cccc(C)c2)c1` [BC18479], for which the pIC50 was 5.00 to 6.00. For `O=C(c1ccc2nc(-c3ccccc3)c(-c3ccccc3)nc2c1)N1CCN(c2ccccn2)CC1` [BC18476], the pIC50 is 6.00 to 7.00. For `CC(C)CCNC(=O)c1ccc2nc(-c3ccc(F)cc3)c(-c3ccc(F)cc3)nc2c1` [BC18442], the pIC50 is above 7.00.

As for `CCS(=O)(=O)c1oc(-c2ccc(F)cc2)nc1S(=O)(=O)c1ccc(Br)cc1` [BC18577], the pIC50 was above 7.00.

In the case of `NC(=O)C1CCN(C(=O)c2ccc3nc(-c4ccc(F)cc4)c(-c4ccc(F)cc4)nc3c2)CC1` [BC18471], the pIC50 was above 7.00.

Take `CSc1oc(-c2ccc(F)cc2)nc1S(=O)(=O)c1ccc(F)cc1` [BC18550]: the pIC50 is below 5.00. The same measure, in the same setting: as for `Cc1ccc(-c2nc3ccc(C(=O)NCc4ccc(Cl)cc4)cc3nc2-c2ccc(C)cc2)cc1` [BC18455], the figure is below 5.00; as for `CSc1oc(-c2ccccc2)nc1S(=O)(=O)c1ccc(Cl)cc1` [BC18513], below 5.00. The same measure, in the same setting: next, `CC(C)Sc1oc(-c2ccc(F)cc2)nc1S(=O)(=O)c1ccccc1` [BC18548]: 5.00 to 6.00; `CCC(C)S(=O)(=O)c1oc(-c2ccc(F)cc2)nc1S(=O)(=O)c1ccc(F)cc1` (stereo not shown) [BC18576]: above 7.00; `CC(C)NC(=O)c1ccc2nc(-c3ccc(F)cc3)c(-c3ccc(F)cc3)nc2c1` [BC18403]: above 7.00.

Regarding `CCN(CC)CCNC(=O)c1ccc2nc(-c3ccc(F)cc3)c(-c3ccc(F)cc3)nc2c1` [BC18426], the pIC50 is above 7.00.

Turning to `CC(C)CCNC(=O)c1ccc2nc(-c3ccccc3)c(-c3ccccc3)nc2c1` [BC18465], the pIC50 was 6.00 to 7.00.

With `CCCCNC(=O)c1ccc2nc(-c3ccccc3)c(-c3ccccc3)nc2c1` [BC18432], the pIC50 is 6.00 to 7.00. On the same count and under the same terms, next, `CCCCS(=O)(=O)c1oc(-c2ccc(F)cc2)nc1S(=O)(=O)c1ccc(F)cc1` [BC18510]: 6.00 to 7.00; `CCCCS(=O)(=O)c1oc(-c2ccc(F)cc2)nc1S(=O)(=O)c1ccc(F)cc1` [BC18565]: above 7.00.

Staying with this test, now noted: THP1-NF-κB-LUC cells; compounds 2 hours before LPS (10 ng/mL) for 18 hours; secreted luciferase; read-out: IC50 (NF-κB assay).
Take `N#Cc1cccc(S(=O)(=O)c2cc3cc(Br)ccc3oc2=O)c1` [BC18317]: the negative logarithm of the IC50 (pIC50) was below 5.00. As for `COc1ccc(S(=O)(=O)c2c[nH]c3cc(F)ccc3c2=O)cc1` [BC18309], the pIC50 is 5.00 to 6.00.

On to `Cc1cc2c(cc1S(=O)(=O)Nc1cc(F)ccc1F)OCC(=O)N2` [BC181311], for which the pIC50 was above 7.00. Still for that read-out and setting: next, `CCc1ccc(NS(=O)(=O)c2cc3c(cc2C)NC(=O)CO3)cc1` [BC181367]: above 7.00. With `Cc1ccc(S(=O)(=O)c2cc3cc(Cl)ccc3oc2=O)cc1Cl` [BC18313], the pIC50 was below 5.00. On the same count and under the same terms, as for `COc1ccc(NS(=O)(=O)c2cc3c(cc2C)N(C(C)=O)CCO3)cc1OC` [BC181381], the figure is below 5.00; as for `CC(=O)c1ccc(NS(=O)(=O)c2cc3c(cc2C)N(C(C)=O)CCO3)cc1` [BC181371], below 5.00; as for `Cc1cc2c(cc1S(=O)(=O)Nc1cccc(Cl)c1)OCC(=O)N2` [BC181354], above 7.00.

With `CCc1ccc(S(=O)(=O)c2cn(CCO)c3cc(F)c(F)cc3c2=O)cc1` [BC18331], the pIC50 is below 5.00. On the same count and under the same terms, next, `COc1ccc2[nH]cc(S(=O)(=O)c3ccc(C#N)cc3)c(=O)c2c1` [BC18312]: below 5.00.

Take `CCc1cccc(NS(=O)(=O)c2cc3c(cc2C)N(C(C)=O)CCO3)c1` [BC181373]: the pIC50 is below 5.00.

Regarding `CCOc1ccc(NS(=O)(=O)c2cc3c(cc2C)NC(=O)CO3)cc1` [BC181302], the pIC50 is above 7.00. As to `CC(=O)N1CCOc2cc(S(=O)(=O)Nc3ccccc3Br)c(C)cc21` [BC181339], the pIC50 is below 5.00. The same measure, in the same setting: next, `Cc1cc2c(cc1S(=O)(=O)Nc1ccc(C(C)C)cc1)OCC(=O)N2` [BC181336]: above 7.00.

As to `Cc1ccc(NS(=O)(=O)c2cc3c(cc2C)NC(=O)CO3)cc1F` [BC181353], the pIC50 is above 7.00.

Turning to `CCc1ccc(S(=O)(=O)c2c[nH]c3ccc(F)cc3c2=O)cc1` [BC18321], the pIC50 was 6.00 to 7.00.

Consider `CCc1ccc(NS(=O)(=O)c2cc3c(cc2C)N(C)CCO3)cc1` [BC181352], for which the pIC50 is below 5.00. Still for that read-out and setting: as for `Cc1cc2c(cc1S(=O)(=O)Nc1ccc3c(c1)OCCO3)OCC(=O)N2` [BC181342], the figure is 6.00 to 7.00. The same measure, in the same setting: as for `Cc1ccc(Cl)cc1NS(=O)(=O)c1cc2c(cc1C)NC(=O)CO2` [BC181366], the figure is 5.00 to 6.00; as for `Cc1cc2c(cc1S(=O)(=O)Nc1ccccc1Br)OCC(=O)N2` [BC181344], 6.00 to 7.00; as for `CC(=O)Nc1ccc(NS(=O)(=O)c2cc3c(cc2C)NC(=O)CO3)cc1` [BC181385], below 5.00.

For `Cc1cc2c(cc1S(=O)(=O)Nc1ccc(Cl)cc1)OCC(=O)N2` [BC181355], the negative logarithm of the IC50 (pIC50) was above 7.00.

Consider `CCOc1ccc2c(c1)c(=O)c(S(=O)(=O)c1ccc(Cl)cc1)cn2C` [BC18327], for which the pIC50 is below 5.00. With `CCCN(c1ccccc1OC)S(=O)(=O)c1cc2c(cc1C)NC(=O)CO2` [BC181338], the pIC50 was 5.00 to 6.00.

Turning to `CCOc1ccc(OCC)c(NS(=O)(=O)c2cc3c(cc2C)NC(=O)CO3)c1` [BC181337], the pIC50 is below 5.00. Regarding `COc1ccc(S(=O)(=O)c2cn(CC(=O)Nc3ccc(F)cc3)c3ccc(C)cc3c2=O)cc1` [BC18335], the pIC50 was below 5.00. Turning to `CCOc1ccccc1NS(=O)(=O)c1cc2c(cc1C)NC(=O)CO2` [BC181379], the pIC50 was below 5.00. On the same count and under the same terms, as for `CC(C)(C)c1ccc(S(=O)(=O)c2c[nH]c3ccc(Br)cc3c2=O)cc1` [BC18322], the figure is 5.00 to 6.00.
